# In patent US20260285809A1, “CRYSTAL OF N-(BENZOYL)-PHENYLALANINE COMPOUND, AND PHARMACEUTICAL COMPOSITION THEREOF, AND PREPARATION METHOD THEREFOR AND USE THEREOF” (Hangzhou Apeloa Medicine Research Institute Co., Ltd., priority 2022, published 2026):
# Tests used:
# Type in all cases: physicochemical
# [1] = Solid-state stability under high temperature, high humidity, light exposure and acceleration conditions (HPLC purity, XRPD form); conditions: for remaining at 168 h / remaining at 360 h: solid state
# Text: Sample on the 7th and 15th day to observe the color change of the samples. Analyze the sample purity and crystal form through HPLC and XPRD detection, respectively.
# Sample on the 15th day to observe the color change of the sample. Analyze the sample purity and crystal form through HPLC and XPRD detection, respectively.
# [2] = Hygroscopicity by dynamic moisture absorber (DVS); conditions: for Weight gain at 80% RH: DVS, 25° C.; for Hygroscopicity (definition criteria for hygroscopic weight gain): from weight gain at 80% RH
# Procedure: The humidity change for each gradient within 0%~90% is 10%. Airflow: 200 ml/min; temperature: 25° C.; testing point: one testing point taken every 10% increase in humidity.
# Take an appropriate amount of the test sample (the compound shown by Formula (I) in the form of Crystal Form A) to test its hygroscopicity with a dynamic moisture absorber.
# Take an appropriate amount of the test sample (the compound shown by Formula (II) in the form of Crystal Form B) to test its hygroscopicity with a dynamic moisture absorber.
# [3] = Solubility in biological media (FaSSIF, FeSSIF), HPLC detection; conditions: for solubility at 0.5 h / solubility at 2 h / solubility at 24 h / Solubility: 37° C.
# Procedure: (§1) Add 20 mg of the sample (the compound shown by Formula (I) in the form of Crystal Form A) into a 10 ml conical tube, and then add 4 ml of water or biological medium (FeSSIF (pH 5.0) or FaSSIF (pH 6.5)), respectively. Shake the solution at 37° C. for 24 h in a constant temperature bath at 1000 rpm, and take samples at 0.5 h, 2 h and 24 h, respectively. Filter the samples through an aquo-system microporous filter membrane and discard the initial filtrate to obtain the test solution.
# Perform an HPLC detection for the test solution ([…]), and calculate the sample concentration according to the standard curve method.
# as §1, with “(II)” for “(I)”, “B)” for “A)”
# [4] = Acceleration 40° C./75% RH, 15d
smiles,measurement,setting,value
"O=C(N[C@@H](Cc1ccc(N2C(=O)C3(CC3)c3ccc(F)c(F)c32)cc1)C(=O)O)c1c(F)cccc1Cl [Crystal Form A, (S)-2-(2-chloro-6-fluorobenzoyl amido)-3-(4-(6′,7′-difluoro-2′-oxospiro [cyclopropane-1,3′-indoline]-1′-yl)phenyl) propionic acid]",Change in purity and crystal form (in words),"[1]; 15 days at 60° C., 92.5% RH, 4500 lux and 40° C./75% RH",no significant changes
same,Crystal form (XRPD),"[1]; Acceleration 40° C./75% RH, 7d",Unchanged
same,Crystal form (XRPD),[1]; [4],Unchanged
same,Crystal form (XRPD),"[1]; High humidity 92.5% RH, 7d",Unchanged
same,Crystal form (XRPD),"[1]; High humidity 92.5% RH, 15d",Unchanged
same,Crystal form (XRPD),"[1]; High temperature 60° C., 7d",Unchanged
same,Crystal form (XRPD),"[1]; High temperature 60° C., 15d",Unchanged
same,Crystal form (XRPD),"[1]; Light exposure 4500 lux, 7d",Unchanged
same,Crystal form (XRPD),"[1]; Light exposure 4500 lux, 15d",Unchanged
same,remaining at 168 h,"[1]; Acceleration 40° C./75% RH, 7d",99.4%
same,remaining at 360 h,[1]; [4],99.4%
same,remaining at 168 h,"[1]; High humidity 92.5% RH, 7d",99.3%
same,remaining at 360 h,"[1]; High humidity 92.5% RH, 15d",99.3%
same,remaining at 168 h,"[1]; High temperature 60° C., 7d",99.4%
same,remaining at 360 h,"[1]; High temperature 60° C., 15d",99.4%
same,remaining at 168 h,"[1]; Light exposure 4500 lux, 7d",99.2%
same,remaining at 360 h,"[1]; Light exposure 4500 lux, 15d",99.2%
same,Weight gain at 80% RH,[2],0.09%
same,Hygroscopicity (definition criteria for hygroscopic weight gain),[2],no or almost no hygroscopicity
same,solubility at 0.5 h,"[3]; FaSSIF (pH 6.5), 0.5 h",2130 µg/mL
same,solubility at 2 h,"[3]; FaSSIF (pH 6.5), 2 h",2230 µg/mL
same,solubility at 24 h,"[3]; FaSSIF (pH 6.5), 24 h",2220 µg/mL
same,solubility at 0.5 h,"[3]; FeSSIF (pH 5.0), 0.5 h",460 µg/mL
same,solubility at 2 h,"[3]; FeSSIF (pH 5.0), 2 h",480 µg/mL
same,solubility at 24 h,"[3]; FeSSIF (pH 5.0), 24 h",490 µg/mL
same,Solubility in FeSSIF and FaSSIF (in words),[3],good solubility
same,Solubility in FeSSIF and FaSSIF (in words),[3]; listed as Crystal form A,relatively good
"O=C(N[C@@H](Cc1ccc(N2C(=O)C3(CC3)c3ccc(F)c(F)c32)cc1)C(=O)O)c1c(F)cccc1Cl [Crystal Form B, (S)-2-(2-chloro-6-fluorobenzoyl amido)-3-(4-(6′,7′-difluoro-2′-oxospiro [cyclopropane-1,3′-indoline]-1′-yl)phenyl) propionic acid]",Weight gain at 80% RH,[2],0.71%
same,Hygroscopicity (definition criteria for hygroscopic weight gain),[2],slight hygroscopicity
same,Solubility,"[3]; FaSSIF (pH 6.5), 0.5 h",3187 µg/mL
same,Solubility,"[3]; FaSSIF (pH 6.5), 2 h",2961 µg/mL
same,Solubility,"[3]; FaSSIF (pH 6.5), 24 h",2791 µg/mL
same,Solubility,"[3]; FeSSIF (pH 5.0), 0.5 h",869 µg/mL
same,Solubility,"[3]; FeSSIF (pH 5.0), 2 h",815 µg/mL
same,Solubility,"[3]; FeSSIF (pH 5.0), 24 h",734 µg/mL
same,Solubility in FeSSIF and FaSSIF (in words),[3],relatively good
